Where “and” joins values, the source holds several entries; their conditions need not be identical. Equal values may be shown once.
What was measured:
[1] = tested on: RNA library C (3×2 nucleotide asymmetric internal loops); assay: 2DCS selection with RNA-seq and HiT-StARTS analysis (Zobs, Fitness Score); type: binding; design: key to Fitness Score: Zobs normalized so most significant interaction = 100
Description: Identification of RNA-binding Small Molecules by 2DCS. […] We have previously validated the secondary structures formed by members of RNA libraries by enzymatic mapping^8, 12, 34. These discrete RNA motifs were selected because they are present in cellular RNAs. Due to the library-versus-library nature of these studies, they represent the largest screens completed to date, probing >52,000,000 interactions. Of the 1,987 compounds probed, 239 bound RNA (12.0%).
A final screen was then completed in which the 91 array-immobilized compounds were incubated with all five RNA motif libraries separately in the presence of oligonucleotide competitors F-J, d(AT)11 and d(GC)11. Oligonucleotides F-J mimic regions common to all library members, restricting binding to the randomized regions. (Note: oligonucleotide J was not used for hairpin selections.) After rigorous washing to remove unbound RNAs, bound RNAs were harvested and identified by RNA-seq. By completing selections under conditions of high oligonucleotides stringency (by use of excess competitor oligonucleotides), these studies identified small molecules that bound RNA motifs avidly. A challenge in the small molecule RNA-targeting area has been the development and identification of selective interactions between small molecules and RNAs. In myriad studies, 2DCS has defined selective RNA motif-small molecule interactions with varied affinities^11, 12, 35, 36.
Identification of Privileged RNA Space by RNA-Seq. Using RNA-seq, a large sequencing dataset was obtained for each pool of RNAs that were specifically bound to each small molecule. RNA libraries A, B, C, D, and E had at least 12.1-fold (average: 133.1±111.8), 6.7-fold (average: 80.8±78.7), 9.9-fold (average: 103.5±110.6), 7.2-fold (average: 75.7±65.6), and 6.0-fold (average: 36.3±31.6) coverage for each small molecule selection, respectively, as compared to the number of unique sequences within the corresponding RNA library. It was previously shown that at least 6-fold coverage is required to generate binding landscape maps^12. RNA-seq data were then analyzed by High Throughput Structure-Activity Relationships Through Sequencing (HiT-StARTS)^12 to identify the privileged RNA motifs that bind each small molecule. Briefly, the frequency of occurrence of a selected RNA was compared to the frequency of occurrence of the same RNA from RNA-seq analysis of the starting RNA library to account for biases arising during transcription and RT-PCR. This pooled population comparison affords the parameter Zobs, a metric of statistical confidence. A large, positive Zobs indicates a strong preference for binding the motif while a negative Zobs indicates a strong preference against binding the motif. A Fitness Score is assigned by normalizing the Zobs values to the most statistically significant small molecule-RNA interaction to 100. […] Structure-Activity Relationships (SAR). Next, the most privileged RNA motif binders and the most discriminated against RNA motifs (non-binders) for each compound selection was analyzed by generating LOGOS from the highest and lowest 0.5% of Zobs scores^37. By comparing the LOGOS for related compounds, or DiffLogos, SAR can be defined. Indeed, various hit compounds differ by a single functional group, including compounds A and B (FIG. 5). […] In contrast, the RNA motifs most hindered from binding compounds 1 and 2 (discriminated against) are quite different (FIG. 5B).
Oligonucleotides. All DNA oligonucleotides were purchased from Integrated DNA Technologies, Inc. (IDT) and used without further purification. RNA oligonucleotide competitors were purchased from Dharmacon and de-protected according to the manufacturer's standard procedure. All oligonucleotide solutions were prepared with NANOpure water. The RNA motif libraries were synthesized by in vitro transcription from the corresponding DNA template that was custom-mixed at the randomized positions to ensure equivalent representation of all four nucleotides. Compounds. […]

[2] = tested on: HCV replication, SGR-Neo-RLuc-JFH1-2A replicon cells established in Huh-7.5; assay: HCV replication in subgenomic replicon cells (Renilla luciferase); type: cell-based, Hepatitis C virus; details: for IC50: Hepatitis C virus, Huh7.5, read-out: IC50, inhibition of HCV replication
Description: The compounds bind their cognate loops in the 3′ UTR with mid-nanomolar to low micromolar affinities (Table 1). It was next determined if the identified compounds could inhibit HCV RNA replication in HCV subgenomic replicon cells, in particular SGR-Neo-RLuc-JFH1-2A replicon cells established in Huh-7.5 (human hepatoma cells). In this system, an autonomously replicating viral RNA replicon is used to monitor efficiently RNA replication of the virus in the absence of spread of viral RNA to adjacent cells. This is achieved by replacing the structural proteins required to assembly progeny virions with a drug selectable marker (Neo) and a Renilla luciferase (RLuc) reporter gene. Once this replicon has been delivered to human hepatoma cells and selection with G418 (conferred by Neo selectable marker) has occurred, the expression and Renilla luciferase activity is directly correlated with the level of HCV replication^57.
They were therefore assayed for their ability to inhibit HCV replication using this replicon system, with DMSO vehicle and 2′-C-methyladenosine^17 triphosphate serving as negative and positive controls, respectively.
Effect of compounds on HCV replication. […] Cytotoxicity assays. […] Oligonucleotide profiling of target engagement in vitro. […] Primers can be found in Table 4. […] Inhibition of kinases. […] . Figure S7C).

panel of 22 kinases = assay: In vitro inhibition of a panel of kinases; type: biochemical; details: 20 μM; for kinases inhibited in the panel: panel of 22 kinases

Structure (SMILES): O=C(Nc1cccc(NC(=O)Nc2cc(C(=O)Nc3ccc(C4=NCCN4)cc3)ccc2C(=O)Nc2ccc(C3=NCCN3)cc2)c1)Nc1cc(C(=O)Nc2ccc(C3=NCCN3)cc2)ccc1C(=O)Nc1ccc(C2=NCCN2)cc1 [Compound 7]
- Fitness Score ([1]; RNA motif 5′AAC3′/3′U_G5′): 33
- Zobs ([1]; RNA motif 5′AAC3′/3′U_G5′): 8.2
- Fitness Score ([1]; RNA motif 5′GAG3′/3′C_C5′): 73
- Zobs ([1]; RNA motif 5′GAG3′/3′C_C5′): 18.3
- Zobs ([1]; RNA motif 5′UCCAU3′/3′AUCA (non-binder)): −2.8
- Zobs ([1]; RNA motif 5′UCCUU3′/3′AUUA5′ (non-binder)): 1.1
- Fitness Score ([1]; RNA motif 5′UGU3′/3′G_A5′): 47
- Zobs ([1]; RNA motif 5′UGU3′/3′G_A5′): 11.8
- Zobs ([1]; RNA motif 5′UUA3′/3′A_U5′): 25.2
- Fitness Score ([1]; RNA motif 5′UUA3′/3′A_U5′, Zobs normalized to most significant interaction = 100): 100
- IC50 [2]: 17 ± 0.5 µM
- kinases inhibited in the panel (panel of 22 kinases): affected seven kinases modestly
- average percent inhibition of the seven affected kinases (panel of 22 kinases): 16±3%

Structure (SMILES): O=C(Nc1ccc(C2=NCCN2)cc1)c1cc(C(=O)Nc2ccc(C3=NCCN3)cc2)cc(C(=O)Nc2ccc(C3=NCCN3)cc2)c1 [Compound 8]
- Fitness Score ([1]; RNA motif 5′GAU3′/3′C_A5′): 87
- Zobs ([1]; RNA motif 5′GAU3′/3′C_A5′): 11.8
- Fitness Score ([1]; RNA motif 5′GCU3′/3′C_A5′): 79
- Zobs ([1]; RNA motif 5′GCU3′/3′C_A5′): 10.8
- Fitness Score ([1]; RNA motif 5′UCUAU3′/3′ACCA5′): 45
- Zobs ([1]; RNA motif 5′UCUAU3′/3′ACCA5′): 6.1
- Zobs ([1]; RNA motif 5′UUA3′/3′A_U5′): 13.6 and 9.5
- IC50 [2]: 14 ± 1 µM
- effect on viral replication together with ASO ([2]; with ASO Control binding 750 nucleotides downstream): less robust
- effect on viral replication together with ASO ([2]; with ASO complementary to SL I, luciferase): synergistic effect
- kinases inhibited in the panel (panel of 22 kinases): affected seven kinases modestly
- average percent inhibition of the seven affected kinases (panel of 22 kinases): 14±3%
